# Measured values published in ChEMBL document CHEMBL5380862, “Unsymmetrical Phosphodiesters as GPR84 Antagonists with High Blood Exposure for the Treatment of Lung Inflammation” (J Med Chem, 2023).
# Calls of active or inactive are those of the source. No cut-off for these calls is given here.
# Tests used:
# [1] = biological target: Beta-2 adrenergic receptor (Homo sapiens) (UniProt P07550); assay: Antagonist activity at ARbeta2 (unknown origin) expressed in HEK293 cells co-expressing Galpha16 assessed as inhibition of Isoproterenol induced calcium response upto 100 uM incubated for 10 mins by calcium mobilization assay; assay type: functional, cell-based
# [2] = AUClast in ICR mouse at 2 mg/kg, iv administered as single dose; assay type: ADME, organism-based; set-up: dose 2 mg/kg, route iv; settings: in vivo
# [3] = biological target: G-protein coupled receptor 84 (Mus musculus) (UniProt Q8CIM5); assay: Antagonist activity at mouse GPR84 expressed in HEK293 cells co-expressing Galpha16 assessed as inhibition of 6-OAU induced calcium response incubated for 10 mins by calcium mobilization assay; assay type: functional, cell-based; settings: filed as antagonist
# Monocyte = assay: Inhibition of cell migration in 3-hydroxydodecanoic acid-stimulated mouse CD11bpositive Ly6Cpositive monocytes at 0.01 to 1 uM incubated for 1.5 hrs by flow cytometric analysis; assay type: functional, cell-based; settings: dose 0.01-1 µM
# [4] = Drug distribution in mouse plasma at 5 mg/kg, po administered as single dose and measured after 0.5 hrs by LC-MS analysis; assay type: ADME, organism-based
# [5] = Drug distribution in mouse brain at 5 mg/kg, po administered as single dose and measured after 0.5 hrs by LC-MS analysis; assay type: ADME, organism-based; settings: read-out: Drug uptake
# [6] = Drug distribution in mouse plasma at 5 mg/kg, po administered as single dose and measured after 8 hrs by LC-MS analysis; assay type: ADME, organism-based; settings: read-out: Drug uptake
# [7] = biological target: Free fatty acid receptor 1 (Homo sapiens) (UniProt O14842); assay: Antagonist activity at GPR40 (unknown origin) expressed in HEK293 cells co-expressing Galpha16 assessed as inhibition of TAK-875 induced calcium response upto 100 uM incubated for 10 mins by calcium mobilization assay; assay type: functional, cell-based
# [8] = Aqueous solubility of the compound incubated overnight by HPLC-DAD analysis; assay type: physicochemical; settings: aqueous medium
# [9] = biological target: T1, Free fatty acid receptor 3 (Homo sapiens) (UniProt O14843); assay: Antagonist activity at GPR41 (unknown origin) expressed in HEK293 cells co-expressing Galpha16 assessed as inhibition of sodium butyrate induced calcium response upto 100 uM incubated for 10 mins by calcium mobilization assay; assay type: functional, cell-based
# T1 sequence (whole entry): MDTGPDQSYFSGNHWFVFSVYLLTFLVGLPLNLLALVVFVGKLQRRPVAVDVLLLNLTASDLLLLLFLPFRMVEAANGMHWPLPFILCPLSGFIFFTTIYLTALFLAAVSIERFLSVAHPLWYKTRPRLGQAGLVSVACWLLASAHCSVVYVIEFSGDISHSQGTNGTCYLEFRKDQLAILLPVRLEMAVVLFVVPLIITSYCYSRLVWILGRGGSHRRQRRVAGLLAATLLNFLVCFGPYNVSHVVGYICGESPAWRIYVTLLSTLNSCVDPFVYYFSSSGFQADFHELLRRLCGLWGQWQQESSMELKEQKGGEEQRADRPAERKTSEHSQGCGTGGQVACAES
# Beta-2 adrenergic receptor (Homo sapiens), sequence (P07550 whole entry, looked up): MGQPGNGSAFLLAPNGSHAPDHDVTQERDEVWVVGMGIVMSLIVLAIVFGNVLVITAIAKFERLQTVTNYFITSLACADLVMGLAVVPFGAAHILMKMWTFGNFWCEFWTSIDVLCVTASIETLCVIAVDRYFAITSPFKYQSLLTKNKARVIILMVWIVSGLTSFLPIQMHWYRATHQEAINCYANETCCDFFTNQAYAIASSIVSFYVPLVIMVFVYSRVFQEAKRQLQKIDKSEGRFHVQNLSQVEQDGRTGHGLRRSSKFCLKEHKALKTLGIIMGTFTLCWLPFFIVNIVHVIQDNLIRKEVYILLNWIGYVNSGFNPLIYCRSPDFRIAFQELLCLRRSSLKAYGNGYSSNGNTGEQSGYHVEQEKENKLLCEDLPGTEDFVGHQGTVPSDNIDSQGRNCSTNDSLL
# G-protein coupled receptor 84 (Mus musculus), sequence (Q8CIM5 whole entry): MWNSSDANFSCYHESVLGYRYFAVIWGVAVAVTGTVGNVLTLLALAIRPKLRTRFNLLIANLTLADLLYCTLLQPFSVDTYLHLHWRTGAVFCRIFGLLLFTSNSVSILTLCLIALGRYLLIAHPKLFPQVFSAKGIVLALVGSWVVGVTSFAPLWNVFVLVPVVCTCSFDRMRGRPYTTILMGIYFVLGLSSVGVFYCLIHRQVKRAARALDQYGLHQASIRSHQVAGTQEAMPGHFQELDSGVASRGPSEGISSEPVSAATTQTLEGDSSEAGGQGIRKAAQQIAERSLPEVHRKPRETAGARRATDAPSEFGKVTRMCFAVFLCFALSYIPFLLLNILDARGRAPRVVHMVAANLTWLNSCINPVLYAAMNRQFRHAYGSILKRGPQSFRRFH
# Free fatty acid receptor 1 (Homo sapiens), sequence (O14842 whole entry): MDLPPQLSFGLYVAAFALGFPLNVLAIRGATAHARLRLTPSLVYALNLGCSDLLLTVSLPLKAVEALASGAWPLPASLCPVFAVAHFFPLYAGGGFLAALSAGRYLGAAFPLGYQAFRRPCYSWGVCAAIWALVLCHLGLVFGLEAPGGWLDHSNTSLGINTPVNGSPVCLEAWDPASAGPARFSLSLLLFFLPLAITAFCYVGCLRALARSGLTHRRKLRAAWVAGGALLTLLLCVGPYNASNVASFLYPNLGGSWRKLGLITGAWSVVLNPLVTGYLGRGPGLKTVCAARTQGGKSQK
smiles,measurement,setting,value
O=P([O-])(OC1=Cc2c(Cl)cccc2Sc2ccccc21)OC1=Cc2c(Cl)cccc2Sc2ccccc21.[Na+],inhibition,[1],inactive
same,AUC(0-t),[2],1680 ng·h/mL
same,inhibition,[3],Active
same,inhibition,Monocyte,Active
same,concentration at 0.5 h,[4],135 ng/mL
same,concentration at 0.5 h,[5],6.8 ng/g
same,concentration at 8 h,[6],50.7 ng/mL
same,inhibition,[7],inactive
same,solubility,[8],891 µg/mL
same,inhibition,[9],inactive
